Experimental data reported in PubChem BioAssay (NCI).
Values joined by “and” are separate entries in the source; they are usually repeats but may differ in a detail not shown here. Identical values can stand only once.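 Cells were grown in 96-well plates and exposed to each compound for 48 hours at five concentrations; endpoints were interpolated linearly between bracketing concentrations, or set to the highest concentration if not reached. Abbreviation: GI50, concentration required for 50% inhibition of growth. TGI is the concentration that stops growth completely.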

Assays:
Assay in all cases: NCI tumour cell line growth inhibition, 48 h
[1] = system: A549 NSCLC
[2] = system: BT-549 breast
[3] = system: HCC-2998 colon
[4] = system: HS 578T breast
[5] = system: HT29 colon
[6] = system: RPMI-8226 leukemia
[7] = system: RXF 393 renal
[8] = system: SF-268 CNS
[9] = system: U251 CNS
[10] = system: UO-31 renal

SMILES | GI50 [1] [µM] | TGI [1] | GI50 [2] [µM] | TGI [2] [µM] | GI50 [3] [µM] | TGI [3] | GI50 [4] [µM] | TGI [4] [µM] | GI50 [5] [µM] | TGI [5] | GI50 [6] | TGI [6] | GI50 [7] | TGI [7] | GI50 [8] [µM] | TGI [8] [µM] | GI50 [9] [µM] | TGI [9] [µM] | GI50 [10] | TGI [10]
O=C(CCc1ccc(O)cc1)N/N=C/c1cc(Br)ccc1O | 4.03 | > 100 µM | 4.19 | 44.8 | 7.12 | 96.9 µM | 10.1 | > 100 | 23.7 | 99.4 µM | 3.57 µM | 33.3 µM | 6.51 µM | > 100 µM | 2.23 | 24.4 | 3.2 | > 100 | 1.34 µM | 7.19 µM
CC(C)(C)c1ccc(NS(=O)(=O)c2ccc3nc(NC(=O)c4cnccn4)[nH]c3c2)cc1 | 2.58 | 16.5 µM | 6.15 | 22.3 | 5.19 | 18.9 µM | 2.66 | 13.2 | 1.79 | 12.6 µM | 4.51 µM | > 100 µM | 1.41 µM | 4.28 µM | 4.29 | 19.2 | 3.96 | 19.6 | 2.08 µM | 10.7 µM
CC[C@H](C)C(=O)O[C@H]1C[C@H](O)C=C2C=C[C@H](C)[C@H](CC[C@@H](O)C[C@@H](O)CC(=O)O)[C@H]21 | > 100 | > 100 µM | > 100 | > 100 | > 100 | > 100 µM | > 100 | > 100 | > 100 | > 100 µM | > 100 µM | > 100 µM | > 100 µM | > 100 µM | > 100 | > 100 | > 100 | > 100 | > 100 µM | > 100 µM
C[C@@H]1COCCN1c1cc(C2(O)C[C@H]3CC[C@@H](C2)O3)c2cnn(-c3ccn[nH]3)c2n1 (some centres undefined) | 0.0651 | 1.13 µM | 0.049 | 0.784 | < 0.0113 | 0.229 µM | 0.0479 | 0.556 | 0.181 | > 100 µM | 0.162 µM | 3.72 µM | < 0.0161 µM | 0.0581 µM | 0.111 | 2.04 | 0.137 | 8.62 | 0.0427 µM | 0.554 µM
O=[N+]([O-])c1cccc2nccc(NCCCO)c12 |  | 49 µM |  | 21.6 |  | 26 µM |  | 43.3 |  | 74.1 µM |  | 46.6 µM |  | 21.5 µM |  | 28.6 |  | 31.3 |  | 35.3 µM
COC(=O)C(C)NC(=O)c1ccccc1I(OS(=O)(=O)C(F)(F)F)c1ccccc1 (centres undefined) | 30.6 | > 75.2 µM | 23 | 57.3 | 14.7 | 32.3 µM | 19.6 | 47.9 | 23.1 | > 61.4 µM | 3 µM | 25.8 µM | 17.7 µM | 41.6 µM | 17.6 | 53.2 | 18.2 | 38.5 | 21.3 µM | 42.1 µM
COc1c(B(O)O)cc(F)cc1-c1nc2ccc3[nH]ncc3c2c2c1CCCC2 | 1.17 | 16 µM | 0.044 | 1.76 | 2.08 | 5.61 µM | 0.0173 | 5.43 | 3.07 | 21.1 µM | 1.12 µM | 5.58 µM | < 0.01 µM | 0.294 µM | 1.42 | 10.5 | 1.6 | 13.1 | 0.045 µM | 9.21 µM
CNCCN=c1ccc2c3c1c(O)c1c(O)ccc(=O)c1c3[nH]n2CCNCCO | 0.027 | 4.65 µM and 4.57 µM |  | 2.43 |  | 1.61 µM and 8.62 µM |  | 1.41 | 0.587 | 3.71 µM and 9.04 µM | 0.129 µM and 0.294 µM | 5.04 µM and 12.4 µM | 0.744 µM and 0.173 µM | 2.54 µM and 1.25 µM |  | 2.57 |  | 0.287 | 0.918 µM and 3.47 µM | 13 µM and 62.2 µM
O=c1oc2c(C(F)(F)F)cccc2cc1-c1csc(Nc2ccc(OCCF)cc2)n1 | 0.0391 | 18.8 µM | 0.0387 | 6.34 | 0.0423 | > 100 µM | 0.051 | > 69.4 | 0.032 | 1.02 µM | 0.0406 µM | 42.7 µM | 0.0343 µM | 18.2 µM | 0.086 | > 60.5 | 0.0376 | 12 | 0.0785 µM | 22.5 µM
O=C(c1ccccc1)c1c(C(F)(F)F)n([O-])c2ccc(C(F)(F)F)cc2[n+]1=O | 0.14 | 0.278 µM | 0.125 | 0.269 | 0.622 | 1.28 µM | 0.537 | 1.33 | 0.177 | 0.349 µM | 0.286 µM | 0.883 µM | 0.175 µM | 0.342 µM | 0.195 | 0.449 | 0.166 | 0.305 | 0.173 µM | 0.322 µM
Cc1cccc(Cc2cnc(NC(=O)CCc3ccc(C)o3)s2)c1 | 0.37 | > 100 µM | 0.814 | > 100 | 0.409 | > 100 µM | 0.356 | > 95.3 | 0.169 | 4.04 µM | 0.318 µM | > 100 µM | 0.204 µM | 3.71 µM | 0.903 | > 100 | 0.293 | > 100 | 0.589 µM | > 100 µM
COc1cc(-c2csc(NC(=O)Nc3cc(Cl)cc(Cl)c3)n2)cc(OC)c1OC | 1.72 | 3.61 µM | 2.2 | 4.65 | 2.39 | 5.55 µM | 1.94 | 4.91 | 2.02 | 4.41 µM | 2.42 µM | 9.24 µM | 1.73 µM | 3.76 µM | 2.81 | 10.6 | 1.68 | 3.15 | 1.67 µM | 3.3 µM
CC#Cc1nc(Nc2cc(C)[nH]n2)c2ccccc2n1 | 5.16 | 26.8 µM | 4.9 | 23.2 | 2.43 | 5.48 µM | 2.28 | 8.41 | 3.71 | 16.9 µM | 6.95 µM and 3.32 µM | 22.2 µM | 7.57 µM and 1.67 µM | 4.96 µM | 4.66 | 20.5 | 11.3 | 27.4 | 7.6 µM and 2.42 µM | 14.5 µM
Cc1c([N+](=O)[O-])oc2ccc3ccccc3c12 |  | > 100 µM |  | > 100 |  | > 100 µM |  | > 100 |  | > 100 µM |  | > 100 µM |  | > 100 µM |  | > 100 |  | > 100 |  | > 100 µM
CCN(CC)C(=S)[S][Bi]([S]C(=S)N(CC)CC)[S]C(=S)N(CC)CC | 1.74 | 3.27 µM | 0.203 | 0.384 | 1.6 | 3.02 µM | 2.64 | 5.87 | 0.052 | 0.229 µM | 0.23 µM | 2.15 µM | 0.183 µM | 0.36 µM | 0.455 | 1.77 | 1.12 | 2.34 | 0.216 µM | 0.468 µM
CCCCCCCCCCCCCCCCCC(=O)Nc1ccn(C2OC(CO)C(O)C2O)c(=O)n1 (centres undefined) |  | > 100 µM |  | > 91.5 |  | > 100 µM |  | > 100 |  | > 100 µM |  | > 100 µM |  | > 100 µM |  | > 100 |  | > 100 |  | > 79.3 µM
CC(=C/c1ccccc1)/C=C1/NC(=S)N(/C=C2\C(=O)Oc3ccccc3C2=O)C1=O |  | > 100 µM | 36.8 | > 100 |  | > 100 µM | > 100 | > 100 | > 100 | > 100 µM |  | > 100 µM |  | > 52.4 µM |  | > 100 |  | > 100 | 91.7 µM | > 100 µM
CC(O)c1cc(C(=O)N[C@@H](C)Cn2ccc(-c3ccc(C#N)c(Cl)c3)n2)n[nH]1 (some centres undefined) | 85.4 | > 100 µM | 19.7 | 77.7 | > 100 | > 100 µM | 62.7 | > 100 | > 100 | > 100 µM | 15.3 µM | 80.6 µM | > 100 µM | > 100 µM | > 100 | > 100 | > 100 | > 100 | 35.1 µM | > 100 µM
CS(=O)(=O)N(c1cc(-c2ccc3ncnc(Nc4cccc(Cl)c4)c3c2)cnc1Cl)S(C)(=O)=O | 1.03 | 4.24 µM | 0.318 | 3.03 | 0.69 | 2.53 µM | 0.236 | 6.08 | 0.364 | 58.8 µM | 0.522 µM | 3.62 µM | 0.231 µM | 0.91 µM | 0.49 | 12.7 | 0.782 | 8.07 | 0.232 µM | 2.52 µM
CC(=O)c1cc(O)c2ccccc2c1O | 37.1 | > 100 µM | 20.1 | 37.2 | 19.9 | 37.1 µM | 39.7 | > 100 | 15.5 | 37 µM | 22.7 µM | 60.5 µM | 19.5 µM | 33.8 µM | 18.8 | 33.4 | 18.6 | 33.6 | 12.1 µM | 25.5 µM
Cc1cc(I)cc(CN(C)CCCN2CCN(C)CC2)c1O | 36 | > 100 µM | 21 | > 73.9 | 24.7 | 56.8 µM | 23.6 | > 68.1 | 13.7 | 41.2 µM | 16.1 µM | 45.2 µM | 21.7 µM | > 81.2 µM | 35 | > 100 | 30.9 | > 100 | 37.5 µM | > 100 µM
O=C(O)c1cc2ccccc2c2c1C(=O)c1ccccc1-2 |  | > 100 µM |  | > 100 |  | > 100 µM |  | > 100 |  | > 100 µM |  | > 100 µM |  | > 100 µM |  | > 100 |  | > 100 |  | > 100 µM
O=C(O)C(Oc1nc(=S)[nH]c(=S)[nH]1)(c1ccc(Cl)cc1)c1ccc(Cl)cc1 |  | > 100 µM |  | > 100 |  | > 100 µM |  | > 100 |  | > 100 µM |  | > 100 µM |  | > 100 µM |  | > 100 |  | > 100 |  | > 100 µM
CN(C)CCCn1c(-c2nonc2N)nc2cnccc21 | > 25 | > 25 µM | > 25 | > 25 | > 25 | > 25 µM | 19.1 | > 25 | > 25 | > 25 µM | > 25 µM | > 25 µM | > 5.19 µM | > 25 µM | > 25 | > 25 | > 25 | > 25 | > 11.2 µM | > 25 µM
CC(C)=CCCC(C)C1=C(O)C(=O)C(C)=CC1=O (centres undefined) |  | > 100 µM |  | 30.2 |  | 27.9 µM |  | > 79.3 |  | > 64 µM |  | > 100 µM |  | 17.8 µM |  | 56.6 |  | > 56.1 |  | 21.3 µM
Cc1ccc(Sc2cc3c(oc2=O)-c2ccccc2OC3O)cc1 (centres undefined) | 28.5 | 74.8 µM | 18.7 | 37.4 | 20.3 | 36.6 µM | 26.1 | 61.7 | 30.9 | > 100 µM | 23.2 µM | 79.7 µM | 26.8 µM | 62.2 µM | 30.3 | 88.6 | 21.1 | 42.3 | 21.7 µM | 50.4 µM
